Target: T1, Adenosine receptor A1 (Homo sapiens, UniProt P30542);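 further: radioligand binding assay at the adenosine A1 receptor, with DPCPX serving as the labelled ligand; in other assays of this panel Not Active means under 50% inhibition at 10 µM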
T1 sequence (P30542 whole entry): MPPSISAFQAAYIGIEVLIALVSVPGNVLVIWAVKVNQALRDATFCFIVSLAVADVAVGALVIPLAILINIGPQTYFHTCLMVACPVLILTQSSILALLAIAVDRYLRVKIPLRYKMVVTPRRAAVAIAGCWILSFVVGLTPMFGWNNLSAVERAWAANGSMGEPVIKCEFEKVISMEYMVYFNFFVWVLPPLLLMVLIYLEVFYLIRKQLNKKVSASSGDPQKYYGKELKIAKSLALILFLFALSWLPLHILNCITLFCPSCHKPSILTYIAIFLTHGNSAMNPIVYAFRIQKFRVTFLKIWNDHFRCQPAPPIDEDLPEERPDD
Format: cell membranes, CHO, Membrane
Details: cho
In the case of `O=C(O)CCNC(=O)c1ccc(/N=N/c2ccc(O)c(C(=O)O)c2)cc1` [BALSALAZIDE], the IC50 is reported as “Not Active”.
In the case of `COc1cc(OC)c(C(=O)CCCN2CCCC2)c(OC)c1` [BUFLOMEDIL], the IC50 is reported as “Not Active”.
For `ClC(Cl)(Cl)Cl` [CARBON TETRACHLORIDE], the IC50 was “Not Active”.
For `CO/N=C(\C(=O)N[C@@H]1C(=O)N2C(C(=O)O)=C(COC(C)=O)CS[C@H]12)c1csc(N)n1` [CEFOTAXIME], the IC50 was “Not Active”.
With `CNC1=Nc2ccc(Cl)cc2C(c2ccccc2)=[N+]([O-])C1` [CHLORDIAZEPOXIDE] the IC50 was “Not Active”.
In the case of `Cc1cc(O)cc(C)c1Cl` [CHLOROXYLENOL], the IC50 is reported as “Not Active”.
For `CCCNC(=O)NS(=O)(=O)c1ccc(Cl)cc1` [CHLORPROPAMIDE], the IC50 was “Not Active”.

Target: 5-hydroxytryptamine receptor 2B (Homo sapiens, UniProt P41595); further: in other assays of this panel Not Active means under 50% inhibition at 10 µM
Sequence (P41595 whole entry): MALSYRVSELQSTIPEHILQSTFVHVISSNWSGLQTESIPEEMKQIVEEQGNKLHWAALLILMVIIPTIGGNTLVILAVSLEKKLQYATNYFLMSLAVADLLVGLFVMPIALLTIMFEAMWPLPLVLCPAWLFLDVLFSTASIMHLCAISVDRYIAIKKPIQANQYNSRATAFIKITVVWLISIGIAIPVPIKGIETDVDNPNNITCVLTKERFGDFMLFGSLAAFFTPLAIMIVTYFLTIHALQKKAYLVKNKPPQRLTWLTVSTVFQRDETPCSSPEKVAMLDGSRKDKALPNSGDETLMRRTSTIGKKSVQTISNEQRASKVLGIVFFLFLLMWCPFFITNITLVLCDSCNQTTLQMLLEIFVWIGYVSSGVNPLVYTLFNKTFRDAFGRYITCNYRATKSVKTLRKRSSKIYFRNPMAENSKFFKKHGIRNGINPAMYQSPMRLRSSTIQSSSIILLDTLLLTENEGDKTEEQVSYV
Format: cell membranes, CHO-K1, Membrane
Details: cho-k1
In the case of `O=C(O)CCNC(=O)c1ccc(/N=N/c2ccc(O)c(C(=O)O)c2)cc1` [BALSALAZIDE], the IC50 is reported as “Not Active”.
In the case of `COc1cc(OC)c(C(=O)CCCN2CCCC2)c(OC)c1` [BUFLOMEDIL], the IC50 is reported as “Not Active”.
In the case of `ClC(Cl)(Cl)Cl` [CARBON TETRACHLORIDE], the IC50 is reported as “Not Active”.
For `CO/N=C(\C(=O)N[C@@H]1C(=O)N2C(C(=O)O)=C(COC(C)=O)CS[C@H]12)c1csc(N)n1` [CEFOTAXIME], the IC50 was “Not Active”.
In the case of `CNC1=Nc2ccc(Cl)cc2C(c2ccccc2)=[N+]([O-])C1` [CHLORDIAZEPOXIDE], the IC50 is reported as “Not Active”.
For `CCCNC(=O)NS(=O)(=O)c1ccc(Cl)cc1` [CHLORPROPAMIDE], the IC50 was “Not Active”.

Same assay, conditions: read-out: IC50
In the case of `Cc1cc(O)cc(C)c1Cl` [CHLOROXYLENOL], the IC50 is reported as 1860 nM.

Same assay, conditions: read-out: Ki
Compound `Cc1cc(O)cc(C)c1Cl` [CHLOROXYLENOL] has a Ki of 1180 nM.

Tested on: not listed separately
Experiment: DRUGMATRIX: Calcium Channel Type L, Phenylalkylamine radioligand binding (ligand: [3H] (-)-Desmethoxyverapamil (D-888))
Format: cell membranes, Rattus norvegicus, Wistar, Brain, Membrane
Details: Not Active = under 50% inhibition at 10 µM
With `O=C(O)CCNC(=O)c1ccc(/N=N/c2ccc(O)c(C(=O)O)c2)cc1` [BALSALAZIDE] the IC50 was “Not Active” and the Ki was “Not Active”.
In the case of `COc1cc(OC)c(C(=O)CCCN2CCCC2)c(OC)c1` [BUFLOMEDIL], the IC50 is reported as “Not Active” and the Ki is reported as “Not Active”.
For `ClC(Cl)(Cl)Cl` [CARBON TETRACHLORIDE], the IC50 was “Not Active” and the Ki was “Not Active”.
With `CO/N=C(\C(=O)N[C@@H]1C(=O)N2C(C(=O)O)=C(COC(C)=O)CS[C@H]12)c1csc(N)n1` [CEFOTAXIME] the IC50 was “Not Active” and the Ki was “Not Active”.
In the case of `CNC1=Nc2ccc(Cl)cc2C(c2ccccc2)=[N+]([O-])C1` [CHLORDIAZEPOXIDE], the IC50 is reported as “Not Active” and the Ki is reported as “Not Active”.
In the case of `Cc1cc(O)cc(C)c1Cl` [CHLOROXYLENOL], the IC50 is reported as “Not Active” and the Ki is reported as “Not Active”.
With `CCCNC(=O)NS(=O)(=O)c1ccc(Cl)cc1` [CHLORPROPAMIDE] the IC50 was “Not Active” and the Ki was “Not Active”.

Target: Cytochrome P450 2C9 (Homo sapiens, UniProt P11712); further: in other assays of this panel Not Active means under 50% inhibition at 10 µM
Sequence (P11712 whole entry): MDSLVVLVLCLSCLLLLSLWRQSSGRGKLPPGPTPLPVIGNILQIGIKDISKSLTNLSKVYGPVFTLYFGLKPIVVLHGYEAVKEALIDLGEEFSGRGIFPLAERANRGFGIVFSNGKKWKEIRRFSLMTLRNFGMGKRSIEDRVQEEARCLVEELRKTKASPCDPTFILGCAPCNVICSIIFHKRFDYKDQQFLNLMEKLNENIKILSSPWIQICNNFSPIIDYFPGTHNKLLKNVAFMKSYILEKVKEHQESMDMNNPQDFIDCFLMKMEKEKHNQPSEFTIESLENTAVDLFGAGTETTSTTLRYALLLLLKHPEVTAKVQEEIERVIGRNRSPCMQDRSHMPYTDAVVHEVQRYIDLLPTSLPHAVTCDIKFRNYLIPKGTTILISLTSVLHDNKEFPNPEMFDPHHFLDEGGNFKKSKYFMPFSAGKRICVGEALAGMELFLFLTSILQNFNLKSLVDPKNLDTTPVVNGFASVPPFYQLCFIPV
Details: bti-tn-5b1-4
In the case of `O=C(O)CCNC(=O)c1ccc(/N=N/c2ccc(O)c(C(=O)O)c2)cc1` [BALSALAZIDE], the IC50 is reported as “Not Active” and the Ki is reported as “Not Active”.
In the case of `COc1cc(OC)c(C(=O)CCCN2CCCC2)c(OC)c1` [BUFLOMEDIL], the IC50 is reported as “Not Active” and the Ki is reported as “Not Active”.
With `ClC(Cl)(Cl)Cl` [CARBON TETRACHLORIDE] the IC50 was “Not Active” and the Ki was “Not Active”.
In the case of `CO/N=C(\C(=O)N[C@@H]1C(=O)N2C(C(=O)O)=C(COC(C)=O)CS[C@H]12)c1csc(N)n1` [CEFOTAXIME], the IC50 is reported as “Not Active” and the Ki is reported as “Not Active”.
With `CNC1=Nc2ccc(Cl)cc2C(c2ccccc2)=[N+]([O-])C1` [CHLORDIAZEPOXIDE] the IC50 was “Not Active” and the Ki was “Not Active”.
For `Cc1cc(O)cc(C)c1Cl` [CHLOROXYLENOL], the IC50 was “Not Active” and the Ki was “Not Active”.
With `CCCNC(=O)NS(=O)(=O)c1ccc(Cl)cc1` [CHLORPROPAMIDE] the IC50 was “Not Active” and the Ki was “Not Active”.

Tested on: not listed separately
Experiment: DRUGMATRIX: Nicotinic Acetylcholine radioligand binding (ligand: [125I] Epibatidine)
Format: cell membranes, Membrane
Details: imr-32; Not Active = under 50% inhibition at 10 µM
With `O=C(O)CCNC(=O)c1ccc(/N=N/c2ccc(O)c(C(=O)O)c2)cc1` [BALSALAZIDE] the IC50 was “Not Active” and the Ki was “Not Active”.
In the case of `COc1cc(OC)c(C(=O)CCCN2CCCC2)c(OC)c1` [BUFLOMEDIL], the IC50 is reported as “Not Active” and the Ki is reported as “Not Active”.
For `ClC(Cl)(Cl)Cl` [CARBON TETRACHLORIDE], the IC50 was “Not Active” and the Ki was “Not Active”.
In the case of `CO/N=C(\C(=O)N[C@@H]1C(=O)N2C(C(=O)O)=C(COC(C)=O)CS[C@H]12)c1csc(N)n1` [CEFOTAXIME], the IC50 is reported as “Not Active” and the Ki is reported as “Not Active”.
With `CNC1=Nc2ccc(Cl)cc2C(c2ccccc2)=[N+]([O-])C1` [CHLORDIAZEPOXIDE] the IC50 was “Not Active” and the Ki was “Not Active”.
With `Cc1cc(O)cc(C)c1Cl` [CHLOROXYLENOL] the IC50 was “Not Active” and the Ki was “Not Active”.
For `CCCNC(=O)NS(=O)(=O)c1ccc(Cl)cc1` [CHLORPROPAMIDE], the IC50 was “Not Active” and the Ki was “Not Active”.

Tested on: not listed separately
Experiment: DRUGMATRIX: Sigma2 radioligand binding (ligand: [3H] Ifenprodil)
Format: cell membranes, Rattus norvegicus, Wistar, Brain, Membrane
Details: Not Active = under 50% inhibition at 10 µM
In the case of `O=C(O)CCNC(=O)c1ccc(/N=N/c2ccc(O)c(C(=O)O)c2)cc1` [BALSALAZIDE], the IC50 is reported as “Not Active” and the Ki is reported as “Not Active”.
In the case of `COc1cc(OC)c(C(=O)CCCN2CCCC2)c(OC)c1` [BUFLOMEDIL], the IC50 is reported as “Not Active” and the Ki is reported as “Not Active”.
With `ClC(Cl)(Cl)Cl` [CARBON TETRACHLORIDE] the IC50 was “Not Active” and the Ki was “Not Active”.
With `CO/N=C(\C(=O)N[C@@H]1C(=O)N2C(C(=O)O)=C(COC(C)=O)CS[C@H]12)c1csc(N)n1` [CEFOTAXIME] the IC50 was “Not Active” and the Ki was “Not Active”.
In the case of `CNC1=Nc2ccc(Cl)cc2C(c2ccccc2)=[N+]([O-])C1` [CHLORDIAZEPOXIDE], the IC50 is reported as “Not Active” and the Ki is reported as “Not Active”.
With `Cc1cc(O)cc(C)c1Cl` [CHLOROXYLENOL] the IC50 was “Not Active” and the Ki was “Not Active”.
In the case of `CCCNC(=O)NS(=O)(=O)c1ccc(Cl)cc1` [CHLORPROPAMIDE], the IC50 is reported as “Not Active” and the Ki is reported as “Not Active”.

From ChEMBL document CHEMBL1909046, “DrugMatrix in vitro pharmacology data”
